Source: ChEMBL document CHEMBL4602694, “Suppression of Drug-Resistant Non-Small-Cell Lung Cancer with Inhibitors Targeting Minichromosomal Maintenance Protein” (J Med Chem, 2020)
Activity calls are given as the source filed them. The rule behind the calls is not given here.

What was measured:
[1] = Antiproliferative activity against human CL1-5 cells assessed as reduction in cell viability incubated for 72 hrs by SRB assay; type: functional, cell-based; details: CL1-5, 72 h
NCI-H1975 [2] = experiment: Antitumor activity against human NCI-H1975 cells xenografted in athymic nude BALB/c mouse assessed as tumor growth at 1 mg/kg, ip administered for 4 weeks (reference value: 1217 +/- 516.6 cu.mm); type: functional
NCI-H1975 [3] = experiment: Antitumor activity against human NCI-H1975 cells xenografted in athymic nude BALB/c mouse assessed as delay in tumor growth at 1 or 4 mg/kg, ip administered for 4 weeks; type: functional, organism-based
[4] = Toxicity in athymic nude BALB/c mouse xenografted with human NCI-H1975 cells assessed as effect on kidney at 1 or 4 mg/kg, ip administered for 4 weeks; type: organism-based; details: in vivo, 672 h
[5] = Toxicity in athymic nude BALB/c mouse xenografted with human NCI-H1975 cells assessed as reduction in body weight at 1 or 4 mg/kg, ip administered for 4 weeks; type: organism-based; details: in vivo, 672 h
[6] = Toxicity in athymic nude BALB/c mouse xenografted with human NCI-H1975 cells assessed as effect on serum creatinine at 1 or 4 mg/kg, ip administered for 4 weeks; type: organism-based; details: in vivo, 672 h
[7] = biological target: DNA replication licensing factor MCM2 (Homo sapiens) (UniProt P49736); experiment: Induction of ubiquitination of MCM2 in human PC9 cells incubated for 24 hrs by immunoblot analysis; type: cell-based; details: PC-9
[8] = biological target: DNA replication licensing factor MCM7 (Homo sapiens) (UniProt P33993); experiment: Induction of ubiquitination of MCM7 in human PC9 cells incubated for 24 hrs by immunoblot analysis; type: cell-based; details: PC-9
[9] = biological target: DNA replication licensing factor MCM2 (Homo sapiens) (UniProt P49736); experiment: Induction of ubiquitination of MCM2 in human NCI-H1975 cells incubated for 72 hrs by immunoblot analysis (reference value: 1); type: cell-based
[10] = biological target: T1, DNA replication licensing factor MCM3 (Homo sapiens) (UniProt P25205); experiment: Induction of ubiquitination of MCM3 in human NCI-H1975 cells incubated for 24 hrs by immunoblot analysis (reference value: 1); type: cell-based
T1 sequence (whole entry): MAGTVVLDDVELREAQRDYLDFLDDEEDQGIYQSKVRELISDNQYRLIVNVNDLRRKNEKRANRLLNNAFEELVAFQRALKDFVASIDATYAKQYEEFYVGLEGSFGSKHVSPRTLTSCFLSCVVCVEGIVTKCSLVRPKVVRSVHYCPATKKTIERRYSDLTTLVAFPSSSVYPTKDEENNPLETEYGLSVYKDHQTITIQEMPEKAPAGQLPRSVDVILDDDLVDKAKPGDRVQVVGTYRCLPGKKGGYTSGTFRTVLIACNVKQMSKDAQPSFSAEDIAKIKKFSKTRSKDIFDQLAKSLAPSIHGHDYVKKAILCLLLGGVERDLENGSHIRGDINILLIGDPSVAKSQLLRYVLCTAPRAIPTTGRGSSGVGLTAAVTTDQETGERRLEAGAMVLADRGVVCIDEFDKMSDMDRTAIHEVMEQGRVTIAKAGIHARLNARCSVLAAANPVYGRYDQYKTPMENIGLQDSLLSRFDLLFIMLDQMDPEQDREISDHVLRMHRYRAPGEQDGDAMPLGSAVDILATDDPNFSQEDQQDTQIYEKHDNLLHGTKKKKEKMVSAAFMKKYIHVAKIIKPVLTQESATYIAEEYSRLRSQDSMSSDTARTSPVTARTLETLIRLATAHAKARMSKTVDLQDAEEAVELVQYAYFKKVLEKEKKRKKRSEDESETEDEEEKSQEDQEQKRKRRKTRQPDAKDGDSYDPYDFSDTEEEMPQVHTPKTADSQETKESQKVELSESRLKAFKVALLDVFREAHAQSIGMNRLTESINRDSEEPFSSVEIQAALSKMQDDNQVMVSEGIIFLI

[11] = biological target: T1, DNA replication licensing factor MCM3 (Homo sapiens); experiment: Induction of ubiquitination of MCM3 in human NCI-H1975 cells incubated for 48 hrs by immunoblot analysis (reference value: 1); type: cell-based
[12] = biological target: T1, DNA replication licensing factor MCM3 (Homo sapiens); experiment: Induction of ubiquitination of MCM3 in human NCI-H1975 cells incubated for 72 hrs by immunoblot analysis (reference value: 1); type: cell-based
[13] = biological target: T2, DNA replication licensing factor MCM5 (Homo sapiens) (UniProt P33992); experiment: Induction of ubiquitination of MCM5 in human NCI-H1975 cells incubated for 48 hrs by immunoblot analysis (reference value: 1); type: cell-based
T2 sequence (whole entry): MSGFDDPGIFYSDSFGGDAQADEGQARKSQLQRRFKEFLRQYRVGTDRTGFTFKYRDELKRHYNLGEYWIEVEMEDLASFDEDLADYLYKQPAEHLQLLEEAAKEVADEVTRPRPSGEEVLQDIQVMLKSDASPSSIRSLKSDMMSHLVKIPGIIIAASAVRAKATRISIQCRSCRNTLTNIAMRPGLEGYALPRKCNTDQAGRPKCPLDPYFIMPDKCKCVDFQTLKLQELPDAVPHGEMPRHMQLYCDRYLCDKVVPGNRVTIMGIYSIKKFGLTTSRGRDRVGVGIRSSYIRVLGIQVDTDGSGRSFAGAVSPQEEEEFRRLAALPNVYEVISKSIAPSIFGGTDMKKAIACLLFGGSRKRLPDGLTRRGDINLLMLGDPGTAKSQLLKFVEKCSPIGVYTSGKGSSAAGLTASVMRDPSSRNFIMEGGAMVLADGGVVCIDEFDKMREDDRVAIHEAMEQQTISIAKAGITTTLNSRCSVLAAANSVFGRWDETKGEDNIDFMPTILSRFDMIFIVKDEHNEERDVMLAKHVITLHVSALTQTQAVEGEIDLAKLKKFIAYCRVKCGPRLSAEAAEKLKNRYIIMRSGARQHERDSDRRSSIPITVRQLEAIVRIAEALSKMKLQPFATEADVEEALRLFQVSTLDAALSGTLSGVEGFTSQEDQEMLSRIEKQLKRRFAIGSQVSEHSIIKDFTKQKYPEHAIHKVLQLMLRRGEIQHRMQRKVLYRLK

[14] = biological target: T2, DNA replication licensing factor MCM5 (Homo sapiens); experiment: Induction of ubiquitination of MCM5 in human NCI-H1975 cells incubated for 72 hrs by immunoblot analysis (reference value: 1); type: cell-based
[15] = biological target: DNA replication licensing factor MCM2 (Homo sapiens) (UniProt P49736); experiment: Induction of ubiquitination of MCM2 in human NCI-H1975 cells in presence of MG132 incubated for 48 hrs followed by MG132 addition and measured after 12 hrs by immunoblot analysis (reference value: 1.4); type: cell-based
[16] = biological target: DNA replication licensing factor MCM7 (Homo sapiens) (UniProt P33993); experiment: Induction of ubiquitination of MCM7 in human NCI-H1975 cells in presence of MG132 incubated for 48 hrs followed by MG132 addition and measured after 12 hrs by immunoblot analysis (reference value: 1.6); type: cell-based
[17] = biological target: DNA replication licensing factor MCM2 (Homo sapiens) (UniProt P49736); experiment: Binding affinity to MCM2 in human NCI-H1975 cells assessed as reduction in MCM2 level measured up to 9 hrs by immunoblot analysis; type: cell-based
NCI-H1975 [18] = experiment: Antiproliferative activity against human NCI-H1975 cells harboring FLAG-tagged MCM2 assessed as reduction in cell viability incubated for 72 hrs by SRB assay; type: functional, cell-based; details: NCI-H1975, 72 h
[19] = Selectivity index, ratio of IC50 for human bronchial epithelial cells to IC50 for human PC9IR cells; type: toxicity; details: human bronchial epithelial cells versus PC9IR cells, read-out: Ratio IC50

DNA replication licensing factor MCM2 (Homo sapiens), sequence (P49736 whole entry): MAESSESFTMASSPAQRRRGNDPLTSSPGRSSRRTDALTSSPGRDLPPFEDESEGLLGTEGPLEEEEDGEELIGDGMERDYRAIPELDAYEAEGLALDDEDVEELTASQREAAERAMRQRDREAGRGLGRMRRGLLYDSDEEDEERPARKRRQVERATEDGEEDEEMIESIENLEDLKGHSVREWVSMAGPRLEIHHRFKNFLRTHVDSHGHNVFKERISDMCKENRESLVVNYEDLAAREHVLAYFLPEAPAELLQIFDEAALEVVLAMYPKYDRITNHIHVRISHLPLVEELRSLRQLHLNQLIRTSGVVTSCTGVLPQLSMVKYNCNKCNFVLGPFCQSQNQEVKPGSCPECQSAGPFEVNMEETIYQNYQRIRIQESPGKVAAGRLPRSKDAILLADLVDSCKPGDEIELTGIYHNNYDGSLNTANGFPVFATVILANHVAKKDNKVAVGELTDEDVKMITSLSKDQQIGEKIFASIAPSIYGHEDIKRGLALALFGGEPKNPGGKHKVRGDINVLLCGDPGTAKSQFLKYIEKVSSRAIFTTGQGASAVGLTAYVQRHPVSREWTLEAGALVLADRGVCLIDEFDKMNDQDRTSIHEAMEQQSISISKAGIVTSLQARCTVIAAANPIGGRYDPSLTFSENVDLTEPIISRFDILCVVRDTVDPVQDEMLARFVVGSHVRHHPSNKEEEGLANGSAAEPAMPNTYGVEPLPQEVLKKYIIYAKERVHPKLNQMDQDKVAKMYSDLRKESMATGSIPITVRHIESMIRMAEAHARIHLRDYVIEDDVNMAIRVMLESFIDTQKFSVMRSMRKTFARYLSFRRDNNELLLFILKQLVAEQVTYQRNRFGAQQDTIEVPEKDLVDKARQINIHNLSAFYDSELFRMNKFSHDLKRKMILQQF
DNA replication licensing factor MCM7 (Homo sapiens), sequence (P33993 whole entry): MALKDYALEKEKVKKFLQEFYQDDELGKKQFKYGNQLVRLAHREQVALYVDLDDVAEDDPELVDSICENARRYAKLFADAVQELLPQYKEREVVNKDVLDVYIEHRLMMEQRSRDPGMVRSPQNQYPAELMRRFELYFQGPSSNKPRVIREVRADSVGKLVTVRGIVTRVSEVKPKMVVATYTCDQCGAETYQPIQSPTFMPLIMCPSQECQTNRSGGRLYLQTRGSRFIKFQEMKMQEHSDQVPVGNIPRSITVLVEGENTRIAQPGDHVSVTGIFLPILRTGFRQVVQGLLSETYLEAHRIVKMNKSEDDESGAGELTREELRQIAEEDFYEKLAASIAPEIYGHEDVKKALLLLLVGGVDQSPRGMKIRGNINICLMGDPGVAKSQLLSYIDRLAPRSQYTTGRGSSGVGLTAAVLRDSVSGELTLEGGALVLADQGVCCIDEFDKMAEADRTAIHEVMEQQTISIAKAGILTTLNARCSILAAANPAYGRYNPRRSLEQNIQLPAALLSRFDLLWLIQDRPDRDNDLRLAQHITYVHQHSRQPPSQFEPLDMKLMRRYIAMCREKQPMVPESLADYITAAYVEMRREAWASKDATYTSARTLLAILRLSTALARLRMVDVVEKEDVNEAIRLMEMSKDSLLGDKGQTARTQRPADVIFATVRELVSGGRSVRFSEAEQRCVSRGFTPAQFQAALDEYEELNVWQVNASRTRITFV

Activity [7]: Active | Activity [8]: Active | Activity [9]: 0.3 | Activity [10]: 1.1 | Activity [11]: 1.1 | Activity [12]: 0.1 | Activity [13]: 0.6 | Activity [14]: 0.8 | Activity [15]: 1.6 | Activity [16]: 0.7 | Activity [17]: Active | IC50 (NCI-H1975 [18]): 71 nM
Structure (SMILES): Cc1oc2c(c1C(=O)NCCCn1ccnc1)C(=O)c1ccccc1C2=O
IC50 [1]: < 100 nM | Activity (NCI-H1975 [2]): 701.2 mm3 | Activity (NCI-H1975 [3]): Active | Activity [4]: Non-Toxic | Activity [5]: Non-Toxic | Activity [6]: Non-Toxic | selectivity ratio [19]: > 10
